The values that follow come from patent publication US20240058310A1, “METHODS OF TREATING DISEASES AND DISORDERS ASSOCIATED WITH CALCIUM ION SIGNALING” (Temple University-Of the Commonwealth System of Higher …, priority 2022, published 2024).

One data set has as its system melanoma metastasis. Conditions: mice; literature reports; cited from earlier work.
The subject of data set [1] is SOCE in B16N murine melanoma cells. The data set is described as follows: SOCE measurement (Fura2, Tg then Ca2+ re-addition) in B16N cells. The data set is classed as cell-based. Conditions: B16N control, UV2, UV5, O1C44; 2 μM IA65. How it is done:
(§1) UV Exposure—Cells were plated on glass coverslips for 24 hours before changing to PBS. Lids were replaced with a thin layer of taut plastic wrap before irradiating with a broadband UV spectrum containing 35% UVA and 65% UVB (with peak emission at 313 nm in the UVB range (De Fabo, E. C., et al, 2004, Cancer Research, 64:6372-6376)). Cells received a total UV dose of 175 J/m^2 over 90 seconds at a rate of 1.94 W/m^2. Approximately 80% of the melanoma cells survive this exposure. Cells were passaged 1:10 every 3 days and cultured under growth optimal conditions for the indicated time period (see Cell Culture below) before subsequent experimentation.
(§2) SOCE Measurement—Cells grown on glass coverslips were incubated in a cation-safe buffer (107 mM NaCl, 7.2 mM KCl, 1.2 mM MgCl2, 11.5 mM Glucose, 20 mM HEPES-NaOH, 1 mM CaCl2, pH 7.2) and loaded with Fura2-acetoxymethylester (Fura2-AM; 2 μM) for 30 min at 24° C. as previously described (Go, C. K., et al, 2019, Science Signaling, 12; Hooper, R., et al., 2015, Molecular and Cellular Biology, 35:2790-2798). Cells were washed and allowed to de-esterify for a minimum of 30 min at 24° C. […] Ca^2+ measurements were taken using a Leica DMI 6000B fluorescence microscope controlled by Slidebook software (Intelligent Imaging Innovations, Denver, CO). […]

Data set [2] relates to melanoma cells (WM983, B16N). The experiment in a line: Viability assay (Trypan Blue). Conditions: 2 μM IA65 overnight, control, UV2, UV5 cells. It is filed as cell-based. As for the experimental part:
Viability Assays—500,000 cells were plated in 24 well plates overnight in the absence or presence of 2 μM IA65. Cells were then trypsinized with 0.25% Trypsin-EDTA for 10 minutes at 37° C. Following, cells were treated with 0.4% Trypan Blue and placed in a Bio-Rad slidereader and the number of stained vs. unstained cells compared.

The test system of data set [3] is WM983 human melanoma cells. The experiment in a line: Matrigel transwell invasion assay, WM983 cells. It is filed as cell-based. Also on record: invasion (Matrigel transwell): dose or concentration left out as unconfirmed. How it is done:
(§3) Transwell Migration Assays—Transwell migration assays were performed as previously described (Hooper, R., et al., 2015, Molecular & Cellular Biology, 35:2790-2798). Briefly, Matrigel® transwell chambers (Corning, Bedford, MA) were hydrated with serum-free OptiMEM for 2 hours (37° C., 5% CO2) prior to the addition of 2,500 cells/well. Growth optimal media was placed on the bottom of the chamber prior to incubation (20 hours; 37° C., 5% CO2). After incubation, media was removed, and edges were cleaned before methanol fixation and staining with crystal violet (0.5%, 2 min). Images were taken by EVOS cell imager and quantified on ImageJ.

Data set [4] deals with SOCE in patient melanoma surgical explant cells. The data set is described as follows: SOCE measurement in cells from patient surgical explants. It is filed as cell-based, human. Particulars: patient explant cells treated with drug in presence of Tg, 15 minutes. As for the experimental part:
(§4) SOCE Measurement—Cells grown on glass coverslips were incubated in a cation-safe buffer (107 mM NaCl, 7.2 mM KCl, 1.2 mM MgCl2, 11.5 mM Glucose, 20 mM HEPES-NaOH, 1 mM CaCl2, pH 7.2) and loaded with Fura2-acetoxymethylester (Fura2-AM; 2 μM) for 30 min at 24° C. as previously described (Go, C. K., et al, 2019, Science Signaling, 12; Hooper, R., et al., 2015, Molecular and Cellular Biology, 35:2790-2798). Cells were washed and allowed to de-esterify for a minimum of 30 min at 24° C. Following de-esterification, cells were treated with 2 μM Thapsigargin (SERCA inhibitor) for 10 minutes prior to imaging. Ca^2+ measurements were taken using a Leica DMI 6000B fluorescence microscope controlled by Slidebook software (Intelligent Imaging Innovations, Denver, CO). Fluorescence emission at 505 nm was monitored in response to excitation at alternating 340 nm and 380 nm wavelengths at a frequency of 0.67 Hz; intracellular Ca^2+ measurements are shown at 340/380 nm ratios obtained from groups (2-45 for patient samples, 35-45 for established cell lines) of single cells.
Isolation of Cells from Patient Surgical Explants—Tissue was incubated in DMEM containing Liberase® TL (Roche Applied Science; 37° C., 30 min). Following incubation, tissue was cut using a sharp razor and dissociated through 50 μM Medicon screens (Becton Dickinson Biosciences, San Jose, CA; 2 min). […]

For data set [5], the system named is patient melanoma surgical explant cells. The experiment in a line: Matrigel transwell invasion assay, patient explant cells. It is filed as cell-based, human. Particulars: TAK475 10 μM, compactin 2 μM, IA65 2 μM or OSMI1 40 μM; 20 hours. How it is done: as §3
Isolation of Cells from Patient Surgical Explants—Tissue was incubated in DMEM containing Liberase® TL (Roche Applied Science; 37° C., 30 min). Following incubation, tissue was cut using a sharp razor and dissociated through 50 μM Medicon screens (Becton Dickinson Biosciences, San Jose, CA; 2 min). Tissue samples were resuspended in DFD media (DMEM, 20% FBS; 500 ug/ml DNAse I, Sigma, St. Louis, MO) and passed through an 18-gauge syringe to break up clumps of cells before filtration (70 μm, Corning, Glendale, AZ, centrifugation and resuspension in DMEM (2% FBS; 1% Gentamycin) for 3 days before use.

Data set [6] relates to WM983 human melanoma cells. The data set is described as follows: Scratch (wound) migration assay, WM983 cells. It is filed as cell-based. Particulars: 2 μM IA65, 0-, 10-, 20-hour. How it is done:
Migration Assay—Cells were plated on glass coverslips (Ibidi, Fitchburg, WI) overnight to form a complete monolayer before “wounding” with a p20 pipette tip. Coverslips were placed in an incubation chamber (37° C.; 5% CO2) and monitored by confocal microscopy (Leica SP8 Laser Scanning Microscope). Z-stack brightfield images were obtained every 20 minutes for 20 hours; the % of the wound that was refilled over time was calculated using ImageJ.

For data set [7], the system named is SOCE in WM983 human melanoma cells. The experiment in a line: SOCE measurement (Fura2, Tg then Ca2+ re-addition) in WM983 cells. It is filed as cell-based. How it is done:
as §1, §4

Data set [8] concerns B16N murine melanoma cells. The data set is described as follows: Matrigel transwell invasion assay, B16N cells. It is filed as cell-based. Also on record: invasion (Matrigel transwell): dose or concentration left out as unconfirmed. How it is done: as §3
Data set [9] deals with SOCE in UACC257 human melanoma cells. The experiment in a line: SOCE measurement (Fura2, Tg then Ca2+ re-addition) in UACC257 cells. Conditions: non-SOCE suppressed UACC257 UV5 cells; overnight treatment. The data set is classed as cell-based. As for the experimental part: as §1, §2

For the compound `O=C(O)Cc1cccc(OCCCN(Cc2cccc(C(F)(F)F)c2Cl)CC(c2ccccc2)c2ccccc2)c1` [GW3965], in the data set on melanoma metastasis, the melanoma metastasis entry is recorded as “suppressed”.
Take `O=C(O)c1ccc(Nc2nc(C(F)(F)F)c(-c3ccccc3)s2)cc1` [IA65, 4-((5-Phenyl-4-(trifluoromethyl)thiazol-2-yl)amino)benzoic acid]: the “SOCE (reversal of SOCE suppression)” value in data set [1] is given as “reversal of SOCE suppression”. Moreover, the cell viability result in data set [2] is reported as “no effect”. Further, in [3] (WM983 control, UV2, UV5, 2 μM IA65, 20 hours), the “invasion through Matrigel in a transwell assay” value was “failed to invade”. In data set [4], the “change in SOCE in patient samples” value is “No significant effect”. Further, in data set [5], the “invasion in vitro of patient cells” value is reported as “diminished invasion”. Moreover, in data set [6], the “UV-induced enhanced cell migration (scratch)” value is “did not have UV-induced enhanced cell migration”. The “UV-induced SOCE suppression” value in [7] (UV2 and UV5 WM983 cells, 2 μM IA65, 15 minutes) is “strikingly reversed UV-induced SOCE suppression”. Further, the SOCE entry in data set [7] (untreated (non-irradiated) WM983 cells, 2 μM IA65, 15 minutes) was “no effect”. Further, the “invasion through Matrigel transwell” value in [8] (B16N control, UV2, UV5, O1C44, 2 μM IA65) is listed as “inhibition of invasiveness”.
As to `COc1ccccc1[C@@H](NS(=O)(=O)c1ccc2[nH]c(=O)ccc2c1)C(=O)N(Cc1ccco1)Cc1cccs1` [OSMI1], the “invasion (Matrigel transwell)” value is listed as “reduced invasion” in data set [3] (SOCE-suppressed WM983 cells, siRNA targeting OGT) and “reduced invasion” in [8] (SOCE-suppressed B16N cells, siRNA targeting OGT). In data set [5], the “invasion in vitro of patient cells” value is “diminished invasion”.
With `O=S(=O)(c1ccccc1)N(CC(F)(F)F)c1ccc(C(O)(C(F)(F)F)C(F)(F)F)cc1` [T0901317], the melanoma metastasis result in the data set with melanoma metastasis was “suppressed”.
Regarding `COc1cccc([C@H]2O[C@H](CC(=O)N3CCC(CC(=O)O)CC3)C(=O)N(CC(C)(C)COC(C)=O)c3ccc(Cl)cc32)c1OC` [TAK475], the SOCE entry in [9] was “no change”; in [7] (UV5 WM983 cells, 24 hr treatment), “markedly enhanced”; in data set [7] (untreated WM983 cells, cholesterol synthesis inhibitor overnight), “neither agent significantly affected SOCE”. Also, the “UV-induced increases in melanoma invasiveness through Matrigel” value in [3] (UV5 WM983 cells, transwell, 20 hours) is “abrogated UV-induced increases in melanoma invasiveness”. Also, the “invasiveness through Matrigel” value in [3] (untreated (control) WM983 cells) is “no effect on invasiveness”. Also, in data set [4], the “change in SOCE in patient samples” value is given as “significantly enhanced SOCE”. Moreover, the “invasion in vitro of patient cells” value in data set [5] is “diminished invasion”.
